Measured values: publication PMC11481179, “Development and Application of Reversible and Irreversible Covalent Probes for Human and Mouse Cathepsin‐K Activity Detection, Revealing Nuclear Activity” (Advanced Science, 2024)

Columns and labels:
CTSL = CTSL (Homo sapiens, UniProt P07711); test: In vitro kinetic evaluation of cathepsin inhibition, fluorescent substrate Z-RR-AMC; type: biochemical; conditions: for mode of inhibition: CTSL; for Ki: CTSL 5 nM, pH 6, 37 °C
Experimental: (§1) used for TLC. Phosphate Buffer Saline (PBS) was purchased from Biological Industries (pH = […]
(§2) 7.4) and was used as a buffer system in all experiments if not indicated otherwise. […]
(§3) Recombinant human CTSB, CTSK, CTSL, and CTSS were supplied by B. Turk (J.
(§4) Stefan Institute).[1] […]
(§5) In vitro kinetic evaluation of labeling recombinant cathepsins:
(§6) Reactions were monitored for 30 min at 37° C in 96-well black flat-bottom microplates […]
(§7) (Greiner, Germany) using Tecan INFINITE M1000 pro plate reader (Tecan, Switzerland), […]
(§8) substrates Z-RR-AMC (CTSL) or Z-FR-AMC (CTSS, CTSB and CTSK), and excitation and […]
(§9) emission wavelengths of 370 and 460 nm, respectively. Cathepsin concentrations in the assay were 0.4 nM (CTSK) or 5 nM (CTSS, CTSB, and CTSL). The buffer was 100 mM Na2HPO4/NaH2PO4, 50 mM NaCl, 5 mM DTT, 0,1% Peg-6000, pH 6. For irreversible inhibitors, reaction data were fitted to the one-phase association formula in GraphPad Prism 9 software: Y=Y0 + (Plateau-Y0)*(1-exp(-K*X)) where in this case Y0 and Y represent fluorescence signal at times 0 and t, respectively, K represent the observed reaction rate kobs and X the inhibitor concentration. Inactivation rates at each inhibitor concentration were obtained by subtracting the inactivation observed in the control sample: kobs – kctrl. The maximal rate of inactivation (kinact) was obtained as the asymptote from equation Y = kinact*X/(Kiapp + X) where X is inhibitor concentration, Y is the observed inactivation rate for each X, and Kiapp is the apparent inhibition constant. Ki values were calculated from IC50 or from Kiapp using formulas Ki = Kiapp / (1 + Km/S) and IC50 = E0/2 + Kiapp, where Km stands for Michalis-Menten constant, S for substrate concentration and E0 for cathepsin concentration.
(§10) The highest inhibitor concentrations in the assay were 50 µM. Measurements were performed in several independent duplicates. Average values are presented with standard deviations. […]
µM) were pretreated with different concentrations of probes (GD32, GD36, GD37, or GD42)

CTSS [1] = biological target: T1, CTSS (Homo sapiens, UniProt P25774); test: In vitro kinetic evaluation of cathepsin inhibition, fluorescent substrate Z-FR-AMC; type: biochemical; conditions: for mode of inhibition: CTSS; for times less potent toward CTSS compared to CTSK: selectivity CTSK over CTSS
T1 sequence (P25774 115-331): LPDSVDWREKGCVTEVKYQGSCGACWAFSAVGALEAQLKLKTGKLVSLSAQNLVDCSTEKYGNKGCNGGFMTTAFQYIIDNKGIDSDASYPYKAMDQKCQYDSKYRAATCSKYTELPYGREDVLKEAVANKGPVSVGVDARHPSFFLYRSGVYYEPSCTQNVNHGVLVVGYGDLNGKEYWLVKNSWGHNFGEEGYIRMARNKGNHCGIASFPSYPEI
Experimental: as §1, §2, §3, §4, §5, §6, §7, §8, §9, §10

CTSS [2] = biological target: T1, CTSS; test: Recombinant cathepsin labeling by ABPs, in-gel fluorescence; type: binding; conditions: increasing probe concentrations, 1 h
Experimental: The ABPs were tested for binding to recombinant CTSK compared to the closely related CTSB, CTSL, and CTSS, which are highly abundant and active in most biological samples. Using the in‐gel fluorescent analysis that detects the stable enzyme‐probe complex, active CTSK was labeled with each of the four probes, and significant selectivity was found in three probes GD32, GD37, and GD42 (Figure 1a). […] However, the minimum amount of active CTSK the remaining probes detected was much higher, ranging from 8 to 70 ngs, (Figure 1b).
Figure 1 In vitro evaluation of CTSK targeted compounds. a) Labeling of recombinant cathepsins by ABPs. Recombinant cathepsins were treated with increasing concentrations of ABPs for 1 h. Samples were separated by SDS‐PAGE and scanned for fluorescence by a Typhoon scanner at 635/670 nm. All probes show dose‐dependent binding to the CTSK, and have lower affinity to CTSS except GD36, b) CTSK [0.5–280 ng] was labeled with the indicated ABPs [5 µM]. Incubations were performed for 1 h at 37 °C, at pH 5.5. Samples were analyzed as described in (a). c) Recombinant cathepsins B, K, L, and S [0.5 µM] were first treated with the indicated concentrations of the inhibitor GD30 or vehicle for 1 h followed by incubation with a pan cathepsin probe GB123 [1 µM] for 1 h. Samples were analyzed as described in (a). d) Quantitative analysis of CTSK inhibition by GD30 presented in (d), data represent mean values ± standard error, n = 3. e) IC50 plot of GD30 inhibition of CTSK activity. […]
emission wavelengths of 370 and 460 nm, respectively. Cathepsin concentrations in the assay were 0.4 nM (CTSK) or 5 nM (CTSS, CTSB, and CTSL). […] For irreversible inhibitors, reaction data were fitted to the one-phase association formula in GraphPad Prism 9 software: Y=Y0 + (Plateau-Y0)*(1-exp(-K*X)) where in this case Y0 and Y represent fluorescence signal at times 0 and t, respectively, K represent the observed reaction rate kobs and X the inhibitor concentration. […]
reaction was stopped and samples were analyzed as described above. […]

Sequence of CTSL (P07711 114-333): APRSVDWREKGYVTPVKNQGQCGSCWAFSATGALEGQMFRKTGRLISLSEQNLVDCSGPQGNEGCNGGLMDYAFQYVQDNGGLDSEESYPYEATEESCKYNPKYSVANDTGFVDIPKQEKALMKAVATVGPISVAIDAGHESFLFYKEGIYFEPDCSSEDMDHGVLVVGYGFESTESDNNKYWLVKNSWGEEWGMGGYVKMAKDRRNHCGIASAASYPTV

mode of inhibition (CTSL) | Ki (CTSL) [µM] | mode of inhibition (CTSS [1]) | Ki (CTSS [1]; CTSS 5 nM, pH 6, 37 °C) [nM] | kinact (CTSS [1]; CTSS 5 nM, pH 6, 37 °C) [s⁻¹] | kinact/Ki (CTSS [1]; CTSS 5 nM, pH 6, 37 °C) [M⁻¹ s⁻¹] | times less potent toward CTSS compared to CTSK (CTSS [1]) [times] | Structure (SMILES) | labeling of CTSS relative to CTSK (CTSS [2])
Reversible | 20 | Irreversible | 980 | 0.0022 ± 0.00009 | 2220 ± 300 | 115 | C#CCNC(=O)[C@H](CC(C)C)N[C@@H](c1ccc(-c2ccc(S(=O)(=O)CCNC(=O)CCCCC[N+]3=C(/C=C/C=C/C=C4/N(C)c5ccc(S(=O)(=O)O)cc5C4(C)C)C(C)(C)c4cc(S(=O)(=O)O)ccc43)cc2)cc1)C(F)(F)F [GD32] | only labeled CTSS at higher concentrations
Reversible | 1.2 | Reversible | 60 | – | – | 150 | CC(C)C[C@H](N[C@@H](c1ccc(-c2ccc(S(=O)(=O)CCNC(=O)CCCCC[N+]3=C(/C=C/C=C/C=C4/N(C)c5ccc(S(=O)(=O)O)cc5C4(C)C)C(C)(C)c4cc(S(=O)(=O)O)ccc43)cc2)cc1)C(F)(F)F)C(=O)NC1(C#N)CC1 [GD37] | only labeled CTSS at higher concentrations
